pEC50: −log10 of the molar value.
Biological target: Excitatory amino acid transporter 1 (Homo sapiens) (UniProt P43003)
Assay: SLC1A3 amino acid substrate potency, dose response, HEK293 JumpIn overexpressing cells, membrane potential dye (AID 1745864)
Conditions: HEK293 JumpIn SLC1A3 OE, FLIPR membrane potential

Sequence of Excitatory amino acid transporter 1 (Homo sapiens) (P43003 whole entry, looked up): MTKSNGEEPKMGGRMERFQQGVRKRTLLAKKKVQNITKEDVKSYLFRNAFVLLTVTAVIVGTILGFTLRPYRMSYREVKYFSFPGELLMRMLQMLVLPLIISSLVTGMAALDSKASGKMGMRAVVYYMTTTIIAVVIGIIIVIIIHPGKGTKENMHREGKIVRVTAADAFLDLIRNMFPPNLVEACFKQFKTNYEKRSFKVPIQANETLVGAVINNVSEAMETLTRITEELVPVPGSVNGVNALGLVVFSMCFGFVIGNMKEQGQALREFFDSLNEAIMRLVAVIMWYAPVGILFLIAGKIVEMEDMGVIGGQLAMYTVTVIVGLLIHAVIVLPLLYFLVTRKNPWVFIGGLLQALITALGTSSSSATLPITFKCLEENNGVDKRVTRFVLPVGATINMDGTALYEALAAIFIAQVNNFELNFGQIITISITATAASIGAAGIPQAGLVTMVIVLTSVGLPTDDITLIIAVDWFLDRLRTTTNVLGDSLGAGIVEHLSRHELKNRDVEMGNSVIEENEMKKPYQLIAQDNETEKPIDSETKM

N[C@@H](CS)C(=O)O was tested, and the pEC50 was 3.42.

Reference: PubChem BioAssay AID1745864
